Reference: publication PMC6920357, “CETSA-based target engagement of taxanes as biomarkers for efficacy and resistance” (Scientific Reports, 2019)
Where two headings read alike, the source gives them in different places. Blank lines part the entries; values can stand above or below the compound they belong to.

Test system: T1, β-tubulin
T1 construct: gene TUBB; endogenous untagged beta-tubulin (isotypes not resolved) in microtubules with alpha-tubulin, intact human cancer cells
Assay: isothermal dose response CETSA, AlphaLISA
Format: cell-based

- EC50: 1550 ± 300 nM
Structure (SMILES): CC(=O)O[C@H]1C(=O)[C@@]2(C)[C@H]([C@H](OC(=O)c3ccccc3)[C@]3(O)C[C@H](OC(=O)[C@H](O)[C@@H](NC(=O)c4ccccc4)c4ccccc4)C(C)=C1C3(C)C)[C@]1(OC(C)=O)CO[C@@H]1C[C@@H]2O [paclitaxel]

- EC50 (intact PC346C prostate cancer cells, heated 63 °C, vinca site, read-out: EC50): 2020 ± 310 nM
Structure (SMILES): CCC1=C[C@@H]2CN(C1)Cc1c([nH]c3ccccc13)[C@@](C(=O)OC)(c1cc3c(cc1OC)N(C)[C@H]1[C@@](O)(C(=O)OC)[C@H](OC(C)=O)[C@]4(CC)C=CCN5CC[C@]31[C@@H]54)C2 [vinorelbine]

- EC50 (intact K562-P cells, 1 h 45 min at 37 °C, heated 63 °C 3 min, no tariquidar, taxane site, read-out: EC50): 300 ± 80 nM
Structure (SMILES): CC(=O)O[C@@]12CO[C@@H]1C[C@H](O)[C@@]1(C)C(=O)[C@H](O)C3=C(C)[C@@H](OC(=O)[C@H](O)[C@@H](NC(=O)OC(C)(C)C)c4ccccc4)C[C@@](O)([C@@H](OC(=O)c4ccccc4)[C@H]21)C3(C)C [docetaxel]
